In PubChem BioAssay (NCI):
“And” between values parts separate entries of the source, which are not always exact repeats. Equal values may be shown once.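 Tested at 5 concentrations; 48 h exposure; 96-well plates; endpoints linearly interpolated, else capped at highest concentration. GI50: concentration for 50% inhibition of growth. TGI: concentration producing complete growth inhibition.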

How the values were obtained:
Assay in all cases: inhibition of tumour cell growth, NCI panel, 48 h
OVCAR-5 ovarian = system: OVCAR-5 ovarian
SK-MEL-5 melanoma = system: SK-MEL-5 melanoma
NCI-H522 lung = system: NCI-H522 lung
A498 renal = system: A498 renal
SK-OV-3 ovarian = system: SK-OV-3 ovarian
RXF 393 renal = system: RXF 393 renal
HOP-62 NSCLC = system: HOP-62 NSCLC
SNB-19 CNS = system: SNB-19 CNS
HCC-2998 colon = system: HCC-2998 colon
MCF7 breast = system: MCF7 breast

| Structure (SMILES) | TGI (OVCAR-5 ovarian) | TGI (SK-MEL-5 melanoma) | TGI (NCI-H522 lung) | TGI (A498 renal) | TGI (SK-OV-3 ovarian) | TGI (RXF 393 renal) | TGI (HOP-62 NSCLC) | GI50 (OVCAR-5 ovarian) | GI50 (SK-MEL-5 melanoma) | GI50 (NCI-H522 lung) [µM] | GI50 (SNB-19 CNS) [µM] | TGI (SNB-19 CNS) | GI50 (A498 renal) [µM] | GI50 (SK-OV-3 ovarian) [µM] | GI50 (HCC-2998 colon) [µM] | TGI (HCC-2998 colon) | GI50 (HOP-62 NSCLC) | GI50 (RXF 393 renal) | GI50 (MCF7 breast) [µM] | TGI (MCF7 breast) [µM] |
| --- | --- | --- | --- | --- | --- | --- | --- | --- | --- | --- | --- | --- | --- | --- | --- | --- | --- | --- | --- | --- |
| O=C(Nc1ccn(CCO)c(=O)n1)c1ccccc1 | > 100 µM | > 100 µM | > 100 µM | > 100 µM | > 100 µM | > 100 µM | > 100 µM |  |  |  |  |  |  |  |  |  |  |  |  |  |
| N.N.N.N.O=C([O-])CCl.O=C([O-])CCl.[Co+3].[O-][Cl+3]([O-])([O-])[O-] | > 100 µM | > 100 µM | > 100 µM | > 100 µM | > 100 µM |  | > 100 µM | > 100 µM | > 100 µM | > 100 | > 100 | > 100 µM | > 100 | > 100 | > 100 | > 100 µM | > 100 µM |  |  |  |
| N#CN/C(N)=N/CO | > 100 µM | > 100 µM | > 100 µM | > 100 µM | > 100 µM | 43.5 µM | > 100 µM |  |  |  |  | > 100 µM |  |  |  | > 100 µM |  |  |  |  |
| Clc1ccc2c(c1)[nH]c1c2nc2ccccn21 | > 100 µM and 30.1 µM | > 100 µM and 30.2 µM | 45.6 µM and 39.6 µM | > 100 µM and 44.5 µM | > 100 µM and 63.7 µM | 68.3 µM and 24.2 µM | > 100 µM and 55.6 µM | 38.8 µM and 16.5 µM | 39.9 µM and 16.4 µM |  |  | 58.6 µM and 35.3 µM |  |  |  | 63.3 µM and 13.8 µM | 78 µM and 24.6 µM | 26.6 µM and 11.7 µM |  |  |
| CC12C/C(=C\c3ccccc3)C(=O)C3C1CCCC32 | > 100 µM | > 100 µM | > 100 µM | > 100 µM | > 100 µM |  | > 100 µM |  |  |  |  | > 100 µM |  |  |  | > 100 µM |  |  |  |  |
| COc1ccc(/C=C\[N+](=O)[O-])cc1OC | 19.3 µM | 14.4 µM |  |  | 26.2 µM | 3.43 µM | 29.2 µM | 4.51 µM | 3.72 µM |  | 9.75 | 25.1 µM |  | 13.4 |  |  | 12 µM | 1.81 µM | 3.05 | 15.9 |
| O=C(CCN(C(=O)O)S(=O)(=O)c1ccc(NC(=O)c2ccccc2)cc1)Nc1ccccc1 | > 100 µM | > 100 µM | > 100 µM | > 100 µM | > 100 µM | > 100 µM | > 100 µM |  |  |  |  | > 100 µM |  |  |  | > 100 µM |  |  |  |  |
| CC(C)C(CCl)NC(=O)c1cccc(C(=O)N[C@H](CCl)C(C)C)n1 (stereo in doubt) | > 100 µM | > 100 µM | > 100 µM | > 100 µM | > 100 µM | > 100 µM | > 100 µM |  |  |  |  | > 100 µM |  |  |  | > 100 µM |  |  |  |  |
| COC(=O)C(C(=O)c1ccccc1)C(C(=O)C(=O)Nc1ccc(OC)cc1OC)C(=O)C(=O)c1ccc(C)cc1 (centres undefined) | > 100 µM | > 100 µM | > 100 µM | > 100 µM | > 100 µM | > 100 µM | > 100 µM |  |  |  |  | > 100 µM |  |  |  | > 100 µM |  |  |  |  |
| COc1cc(Nc2ncccc2C(=O)NCc2cn(Cc3cccc(Oc4ccccc4)c3)nn2)cc(OC)c1 | > 100 µM | > 100 µM | > 100 µM | > 100 µM | > 100 µM | > 100 µM | > 100 µM | > 100 µM | 3.11 µM | 3.31 | 9.64 | > 100 µM | 4.18 | 4.33 | 9.6 | > 100 µM | 6.31 µM | 3.77 µM |  |  |
| CC1=C(C(=O)Nc2ccc(F)c(Cl)c2)C(c2ccccc2O)NC(=S)N1 (centres undefined) | > 50 µM | > 50 µM | > 50 µM |  | > 50 µM | > 50 µM | > 50 µM | > 50 µM | 21.9 µM | > 50 | > 50 | > 50 µM |  | > 50 |  |  | > 50 µM | 2.15 µM |  |  |
| CCOC(=O)c1cnc2c(ccc3[nH]n(C)nc32)c1=O | > 100 µM | > 100 µM | > 100 µM | > 100 µM | > 100 µM | 95.5 µM | > 100 µM |  |  |  |  | > 100 µM |  |  |  | > 100 µM |  |  |  |  |
| CC(C)CCC1CC2C(=O)N(c3ccccc3)C(=O)C2c2[nH]c3ccccc3c21 (centres undefined) | 31.4 µM | 13 µM |  | 16 µM | 32.2 µM | 8.01 µM |  |  |  |  |  | 20.6 µM |  |  |  | 11.2 µM |  |  |  |  |
| CN1CC(=O)N2Cc3ccccc3-n3cccc3C2C1 (centres undefined) | > 100 µM | > 100 µM |  | > 100 µM | > 100 µM | > 100 µM | > 100 µM |  |  |  |  | > 100 µM |  |  |  | > 100 µM |  |  |  |  |
| OC(CC1SCCCS1)c1ccccc1 (centres undefined) | > 100 µM | > 100 µM | > 100 µM | > 100 µM | > 100 µM | > 100 µM | > 100 µM |  |  |  |  | > 100 µM |  |  |  | > 100 µM |  |  |  |  |
